From US20250107523A1, “TRIGGERING DIATOM PROGRAMMED CELL DEATH BY STIMULATING INFOCHEMICAL SIGNALING SYSTEMS” (BATTELLE MEMORIAL INSTITUTE, priority 2023, published 2025)

How the values were obtained:
[1] = test system: model diatoms; details: cited from earlier work
[2] = test system: freshwater diatom Encyonema minutum var. pseudogracialis (Em); test: Lethality experiments on diatom Em in 96-well plates, live/dead count by Neutral Red vital staining; type: cell-based; details: 10 μM TDD alone; ~24 hours, 20° C.; n=3
Experimental: Em was maintained and tested at BMI in a modified filter-sterilized CR1-S algal medium with no soil particles so as to improve visualization and counting speed and accuracy.
All experiments were conducted in untreated polystyrene 96-well plates. Total liquid volume added to each well was 200 μL for all assays. At the start of each experiment, a conical tube of diatom Em was split into two and given fresh media (1:1 algae:media), then examined under a microscope to confirm vitality.
Lethality experiments were conducted with 6 different commercial algicides (AlgaeFix™, DINO X, Aquathol® K, Cutrine® Plus, GreenClean® PRO, and Hydrothol® 191 Granular) and two infochemicals (trans,trans-2,4-decadienal [TDD] and cholesterol-3-sulfate [C3S]). Fresh 50 mM or 25 mM stock solutions of each infochemical were prepared in DMSO immediately prior to each experiment. […]
Following incubation, 1.5 μL of filtered Neutral Red (0.8 g in 25 mL DI) for every 100 μL of solution (3 μL for 200 μL) was added to each well. […] A different staff member counted cells in 5 μL from each well using a hemocytometer under a microscope; this second staff member was not told which treatments were in which wells, so as to maintain single-blind data collection. Total cells were counted, along with live/dead characterization via Neutral Red vital cell staining, and time of well count completion.

Row | SMILES | Level leading to programmed-cell-death / cell death [1] | Single treatment: lethality above negative control [2] [%]
1 | CCCCC/C=C/C=C/C=O [TDD, trans,trans-2,4-decadienal] | micromolar levels | 6.7
2 | CC(C)CCC[C@@H](C)[C@H]1CC[C@H]2[C@@H]3CC=C4C[C@@H](OS(=O)(=O)O)CC[C@]4(C)[C@H]3CC[C@]12C [C3S, cholesterol-3-sulfate, reference compound] | micromolar levels | 
